# Data reported in patent US20230111925A1, “FIBROTIC DISEASE MECHANISM AND THERAPEUTIC DRUG THEREFOR” (GUANGZHOU WOMEN AND CHILDREN'S MEDICAL CENTER, priority 2020, published 2023).
# Structures can show the parent of a compound that is named as a salt.
# Assays:
# [1] = system: DSS-induced mouse colitis; assay: DSS-induced mouse colitis
# [2] = system: CCD-18Co cells stimulated by TGF-β and TNF-α; assay: Intestinal interstitial fibrosis model in CCD-18Co cell line (Western blot); type: cell-based; conditions: 0.5 μM ITI-214 added one hour in advance; TGF-β 10 ng/ml and TNF-α 40 ng/ml, 48 hours
# [3] = system: normal intestinal fibroblast CCD-18Co; assay: Proliferation and apoptosis of normal intestinal fibroblast CCD-18Co; type: cell-based
# [4] = system: lung epithelial cells A549 infected with SEV; assay: IFN-β induction in SeV-infected lung epithelial cells A549; type: cell-based; conditions: vs DMSO
# Text: Total RNA was extracted from cells, and the mRNA level of IFN-β was detected by fluorescence quantitative PCR. The level of IFN-β in the supernatants was detected by ELISA. […] The cells were collected and total RNA was collected from the cells, and the mRNA level of IFN-β was detected by fluorescence quantitative PCR.
# RNA virus VSV = type: in vivo, mice; conditions: Dipyridamole 30 mg/kg i.p. from day -3; VSV 10^8 PFU/g tail vein day 0 and day 4
# [5] = PF-04447943 3 mg/kg i.p. twice a day days 4-12, vs model group
# [6] = Roflumilast 3 mg/kg i.p. twice a day days 4-9, vs model group
# [7] = ITI214 3 mg/kg i.p. twice a day days 4-8, 2% DSS days 0-7
# [8] = A549, SEV MOI=1, 0, 16 and 24 hours
# [9] = Mardepodect hydrochloride 1 mg/kg i.p. twice a day days 4-7, vs model group
# [10] = 5 mg/kg i.p. twice a day days 4-15, 2% DSS days 0-10, vs model group
# [11] = 10 mg/kg i.p. twice a day days 4-15, 2% DSS days 0-10
# [12] = 10 mg/kg i.p. twice a day days 4-15, 2% DSS days 0-10, vs model group
# [13] = PF-05085727 3 mg/kg i.p. twice a day days 4-9
# [14] = PF-05085727 3 mg/kg i.p. twice a day days 4-9, vs model group
# [15] = Icariin 50 mg/kg i.p. twice a day days 4-7, vs model group
compound,measurement,setting,value
C[C@@H]1CN(Cc2ncccn2)C[C@H]1c1nc2c(cnn2C2CCOCC2)c(=O)[nH]1 [PF-04447943],colon length,[1]; PF-04447943 3 mg/kg i.p. twice a day days 4-12,significantly improve
same,weight loss,"[1]; PF-04447943 3 mg/kg i.p. twice a day days 4-12, 2% DSS days 0-10, from day 6",significantly inhibited
same,survival rate,"[1]; PF-04447943 3 mg/kg i.p. twice a day days 4-12, 2% DSS days 0-10, model group 40%",100%
same,"disease activity index score, experimental colitis","[1]; PF-04447943 3 mg/kg i.p. twice a day days 4-12, from day 6",significantly inhibited
same,"colonic tissue structure, epithelial structure (H&E)",[1]; [5],significantly restore
same,fibrosis (colon H&E),[1]; [5],reduced
same,infiltration of inflammatory cells (colon H&E),[1]; [5],decreased
O=C(Nc1c(Cl)cncc1Cl)c1ccc(OC(F)F)c(OCC2CC2)c1 [Roflumilast],weight changes,"[1]; Roflumilast 3 mg/kg i.p. twice a day days 4-9, 2% DSS days 0-7",did not decrease significantly
same,"colonic tissue structure, epithelial structure (H&E)",[1]; [6],significantly restore
same,fibrosis (colon H&E),[1]; [6],reduced
same,infiltration of inflammatory cells (colon H&E),[1]; [6],decreased
CN1C(=O)c2c(nn(Cc3ccc(-c4cccc(F)n4)cc3)c2Nc2ccccc2)N2C1=N[C@@H]1CCC[C@@H]12.O=P(O)(O)O [ITI214],"protein expression levels of α-SMA, COL1A2 and FAP in cells (Western blot)",[2],inhibited
same,colon length,[1]; [7],significantly improved
same,"disease activity index score (DAI score), severity of colitis",[1]; [7],significantly reduced
same,fibrosis (colon H&E),[1]; [7],inhibits
same,infiltration of inflammatory cells (colon H&E),[1]; [7],reduces
same,structures of colon epithelium and lamina propria (H&E),[1]; [7],significantly restored
same,weight changes of mice,"[1]; ITI214 3 mg/kg i.p. twice a day days 4-8, 2% DSS days 0-7, day 7",significantly increased
same,survival rate,"[1]; ITI214 3 mg/kg i.p. twice a day days 4-8, 2% DSS days 0-7, model group 50%",80%
same,apoptosis of fibroblasts (flow early/late apoptosis analysis),"[3]; 0.5 μM ITI-214, 48 hours",promoted
same,proliferation of fibroblasts,"[3]; 0.5 μM ITI-214, 48 hours",effectively inhibit
OCCN(CCO)c1nc(N2CCCCC2)c2nc(N(CCO)CCO)nc(N3CCCCC3)c2n1 [Dipyridamole],mRNA level of the type I interferon IFN-β (fluorescence quantitative PCR),"[4]; A549, PDE inhibitor 5 μM, SEV MOI=1, 24 hours",significantly up-regulate
same,mRNA level of IFN-β (fluorescence quantitative PCR),[4]; [8],significantly promoted
same,protein level of IFN-β in the supernatants (ELISA),[4]; [8],significantly promoted
same,infiltration of pulmonary inflammation in lung and alveolar injury (H&E staining of mouse lung),RNA virus VSV,significantly reduced
same,apoptosis of fibroblasts (flow early/late apoptosis analysis),"[3]; 20 μM DIP, 48 hours",promoted
same,proliferation of fibroblasts (crystal violet staining),"[3]; 20 μM DIP, 48 hours",inhibited
Cn1cc(-c2ccncc2)c(-c2ccc(OCc3ccc4ccccc4n3)cc2)n1 [Mardepodect hydrochloride],weight changes,"[1]; Mardepodect hydrochloride 1 mg/kg i.p. twice a day days 4-7, 2% DSS days 0-7",did not decrease the weight significantly
same,"colonic tissue structure, epithelial structure (H&E)",[1]; [9],significantly restore
same,fibrosis (colon H&E),[1]; [9],reduced
same,infiltration of inflammatory cells (colon H&E),[1]; [9],decreased
COc1ccc(C(=O)N2CCN(c3ccc4c(c3)CCC(=O)N4)CC2)cc1OC [Vesnarinone],weight changes,"[1]; 5 mg/kg i.p. twice a day days 4-15, 2% DSS days 0-10",did not decrease significantly
same,"colonic tissue structure, epithelial structure (H&E)",[1]; [10],significantly restore
same,fibrosis (colon H&E),[1]; [10],reduced
same,infiltration of inflammatory cells (colon H&E),[1]; [10],decreased
Cc1[nH]c(=O)c(C#N)cc1-c1ccncc1 [Milirinone],weight changes,[1]; [11],did not decrease significantly
same,"colonic tissue structure, epithelial structure (H&E)",[1]; [12],significantly restore
same,fibrosis (colon H&E),[1]; [12],reduced
same,infiltration of inflammatory cells (colon H&E),[1]; [12],decreased
Cn1ncc(-c2nn(C)c3ncnc(N4CCC4)c23)c1-c1ccc(C(F)(F)F)cc1 [PF-05085727],colon length,[1]; [13],significantly improved
same,"disease activity index score, activity degree of the disease",[1]; [13],did not aggravate
same,weight changes,"[1]; PF-05085727 3 mg/kg i.p. twice a day days 4-9, 2% DSS days 0-7",did not decrease significantly
same,survival rate,"[1]; PF-05085727 3 mg/kg i.p. twice a day days 4-9, 2% DSS days 0-7, model group 40%",100%
same,"colonic tissue structure, epithelial structure (H&E)",[1]; [14],significantly restored
same,fibrosis (colon H&E),[1]; [14],reduced
same,inflammatory cells (colon H&E),[1]; [14],reduced
O=C1CCc2cc(OCCCCc3nnnn3C3CCCCC3)ccc2N1 [Cilostazol],weight changes,[1]; [11],did not decrease significantly
same,"colonic tissue structure, epithelial structure (H&E)",[1]; [12],significantly restore
same,fibrosis (colon H&E),[1]; [12],reduced
same,infiltration of inflammatory cells (colon H&E),[1]; [12],decreased
Icariin,weight loss of colitis,"[1]; Icariin 50 mg/kg i.p. twice a day days 4-7, 2% DSS days 0-7, from day 6",significantly inhibited
same,"colonic tissue structure, epithelial structure (H&E)",[1]; [15],significantly restore
same,fibrosis (colon H&E),[1]; [15],reduced
same,infiltration of inflammatory cells (colon H&E),[1]; [15],decreased
